Patent publication US8618289B2 (Ambit Biosciences Corporation, priority 2008, dated 2013)
Structures can show the parent of a compound that is named as a salt.

Experiments:
[1] = biological target: RAF kinases (Homo sapiens, UniProt P15056); assay: biochemical
Protocol: (§1) Competition binding assays used herein were developed, validated and performed as described in Fabian et al., Nature Biotechnology 2005, 23, 329-336. […] The liganded beads were blocked with excess biotin and washed with blocking buffer (SeaBlock (Pierce), 1% BSA, 0.05% Tween 20, 1 mM DTT) to remove unbound ligand and to reduce non-specific binding. […] Test compounds were prepared as 100× stocks in DMSO and rapidly diluted into the aqueous environment. DMSO was added to control assays lacking a test compound. Primary screen interactions were performed in polypropylene 384-well plates in a final volume of 34 μt, while Kd determinations were performed in polystyrene 96-well plates in a final volume of 135 pt. […] The kinase concentration in the eluates was measured by quantitative PCR. Each kinase was tested individually against each compound. Kds were determined using eleven serial threefold dilutions. A selectivity score, which is a quantitative measure of selectivity of a compound against a panel of enzymes, may be calculated for a compound by dividing the number of enzymes for which a compound meets a set criteria, (for example, a binding constant of 100 nM or less), by the total number of enzymes tested. […] (Note, for those compounds tested in a larger kinase panel, as indicated by an asterisk (*) next to the S35 score, the divisor is 321 (i.e. the larger panel contains 321 distinct kinases, excluding mutant variants.)).

[2] = biological target: RAF kinases (Homo sapiens, UniProt P04049); assay: biochemical
Protocol: as §1

[3] = tested on: MEK1 phosphorylation in the A375 human melanoma cell line; assay: cells; details: A-375, read-out: pMEK IC50
[4] = tested on: A375 cells; assay: cells; details: Homo sapiens, A-375, read-out: A375 Viability EC50

Sequence of RAF kinases (Homo sapiens, UniProt P04049) (P04049 whole entry): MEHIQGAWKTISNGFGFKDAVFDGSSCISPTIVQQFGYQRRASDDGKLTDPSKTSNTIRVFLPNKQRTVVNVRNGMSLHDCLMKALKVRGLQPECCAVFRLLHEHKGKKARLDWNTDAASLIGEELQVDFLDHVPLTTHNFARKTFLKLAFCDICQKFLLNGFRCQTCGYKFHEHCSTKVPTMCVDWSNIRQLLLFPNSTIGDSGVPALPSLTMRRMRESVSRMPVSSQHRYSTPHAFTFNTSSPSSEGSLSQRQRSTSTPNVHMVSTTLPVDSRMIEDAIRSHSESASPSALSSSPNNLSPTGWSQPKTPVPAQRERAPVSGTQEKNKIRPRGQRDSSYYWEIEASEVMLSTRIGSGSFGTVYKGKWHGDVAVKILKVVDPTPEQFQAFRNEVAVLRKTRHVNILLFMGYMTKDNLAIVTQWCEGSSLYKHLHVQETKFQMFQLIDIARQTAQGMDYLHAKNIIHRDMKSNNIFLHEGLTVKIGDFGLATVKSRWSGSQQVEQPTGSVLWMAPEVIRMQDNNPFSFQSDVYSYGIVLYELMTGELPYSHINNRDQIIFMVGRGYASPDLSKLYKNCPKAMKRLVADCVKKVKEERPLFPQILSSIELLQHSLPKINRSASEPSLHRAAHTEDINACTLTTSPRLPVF
Sequence of RAF kinases (Homo sapiens, UniProt P15056) (P15056 whole entry): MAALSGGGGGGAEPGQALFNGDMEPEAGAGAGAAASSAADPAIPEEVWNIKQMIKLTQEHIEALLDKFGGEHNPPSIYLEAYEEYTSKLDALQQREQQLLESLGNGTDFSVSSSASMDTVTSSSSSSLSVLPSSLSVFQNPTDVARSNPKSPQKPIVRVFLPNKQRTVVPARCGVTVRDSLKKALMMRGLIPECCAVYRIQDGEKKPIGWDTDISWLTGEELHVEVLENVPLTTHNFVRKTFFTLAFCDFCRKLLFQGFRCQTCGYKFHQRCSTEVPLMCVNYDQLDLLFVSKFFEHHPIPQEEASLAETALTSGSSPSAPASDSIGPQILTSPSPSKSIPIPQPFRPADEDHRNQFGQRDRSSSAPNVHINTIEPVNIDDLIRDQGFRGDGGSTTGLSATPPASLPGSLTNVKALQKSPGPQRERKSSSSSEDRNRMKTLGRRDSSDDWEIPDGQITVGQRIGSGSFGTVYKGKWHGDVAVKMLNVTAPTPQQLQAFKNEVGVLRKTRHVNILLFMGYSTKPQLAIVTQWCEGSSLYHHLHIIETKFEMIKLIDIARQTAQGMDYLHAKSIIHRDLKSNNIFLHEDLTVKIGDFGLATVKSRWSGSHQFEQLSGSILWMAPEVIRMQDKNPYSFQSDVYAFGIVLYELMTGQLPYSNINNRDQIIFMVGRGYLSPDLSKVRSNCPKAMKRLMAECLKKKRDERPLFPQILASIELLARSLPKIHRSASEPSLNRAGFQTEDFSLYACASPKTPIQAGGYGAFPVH

SMILES | Kd [1] [nM] | Kd [2] [nM] | IC50 [3] [nM] | EC50 [4] [nM]
COc1cc2c(Oc3cccc(NC(=O)Nc4cc(C(C)(C)C)on4)c3)ncnc2cc1O [Ex 95, 1-(5-tert-butylisoxazol-3-yl)-3-(3-(7-hydroxy-6-methoxyquinazolin-4-yloxy)phenyl)urea] | 500 to 1000 | 250 to 500 | < 250 | < 250
COCCOc1cc2c(Oc3cccc(NC(=O)Nc4cc(C(C)(C)C)on4)c3)ncnc2cc1OC [Ex 15, 1-(5-tert-butylisoxazol-3-yl)-3-{3-[7-methoxy-6-(2-methoxyethoxy)quinazolin-4-yloxy]phenyl}urea hydrochloride] | 250 to 500 | 250 to 500 | < 250 | < 250
COCCOc1cc2ncnc(Sc3cccc(NC(=O)Nc4cc(C(C)(C)C)on4)c3)c2cc1OC [Ex 52, 1-(5-tert-butylisoxazol-3-yl)-3-{3-[6-methoxy-7-(2-methoxyethoxy)quinazolin-4-ylthio]phenyl}urea hydrochloride] | 250 to 500 | 250 to 500 | < 250 | 500 to 1000
CC(C)(C)c1cc(NC(=O)Nc2cccc(Oc3ncnc4ccc(-c5ccc(CNCCS(C)(=O)=O)o5)cc34)c2)no1 [Ex 92, 1-(5-tert-butylisoxazol-3-yl)-3-{3-[6-(5-{[2-(methylsulfonyl)ethylamino]methyl}furan-2-yl)quinazolin-4-yloxy]phenyl}urea] | 500 to 1000 | 250 to 500 | < 250 | < 250
COCCOc1cc2ncnc(Sc3cccc(NC(=O)Nc4cc(C(C)(C)C)on4)c3)c2cc1OCCOC [Ex 53, 1-{3-[6,7-bis(2-methoxyethoxy)quinazolin-4-ylthio]phenyl}-3-(5-tert-butylisoxazol-3-yl)urea hydrochloride] | 500 to 1000 | 250 to 500 | < 250 | 500 to 1000
COc1cc2ncnc(Oc3cccc(NC(=O)Nc4cc(C(C)(C)C)on4)c3)c2cc1OCCN1CCOCC1 [Ex 20, 1-(5-tert-butylisoxazol-3-yl)-3-(3-(7-methoxy-6-(2-morpholinoethoxy)quinazolin-4-yloxy)phenyl)urea] | 250 to 500 | 250 to 500 | < 250 | < 250
COc1cc2c(Oc3cccc(NC(=O)Nc4cc(C(C)(C)C)on4)c3)ncnc2cc1OCCN1CCOCC1 [Ex 35, 1-(5-tert-butylisoxazol-3-yl)-3-(3-(6-methoxy-7-(2-morpholinoethoxy)quinazolin-4-yloxy)phenyl)urea] | 250 to 500 | 250 to 500 | < 250 | 500 to 1000
COc1cc2c(Sc3cccc(NC(=O)Nc4cc(C(C)(C)C)on4)c3)ncnc2cc1OCCCN1CCN(S(C)(=O)=O)CC1 [Ex 77, 1-(5-tert-butylisoxazol-3-yl)-3-(3-(6-methoxy-7-(3-(4-(methylsulfonyl)piperazin-1-yl)propoxy)quinazolin-4-ylthio)phenyl)urea] | 500 to 1000 | 500 to 1000 | < 250 | 250 to 500
COCCOc1cc2c(Sc3cccc(NC(=O)Nc4cc(C(C)(C)C)on4)c3)ncnc2cc1OC [Ex 45, 1-(5-tert-butylisoxazol-3-yl)-3-(3-(7-methoxy-6-(2-methoxyethoxy)quinazolin-4-ylthio)phenyl)urea] | 500 to 1000 | 250 to 500 | < 250 | 250 to 500
COc1cc2c(Sc3cccc(NC(=O)Nc4cc(C(C)(C)C)on4)c3)ncnc2cc1OCCCN1CCCCC1 [Ex 76, 1-(5-tert-butylisoxazol-3-yl)-3-(3-(6-methoxy-7-(3-(piperidin-1-yl)propoxy)quinazolin-4-ylthio)phenyl)urea] | 250 to 500 | 500 to 1000 | < 250 | > 1000
COc1cc2c(Sc3cccc(NC(=O)Nc4cc(C(C)(C)C)on4)c3)ncnc2cc1OCCCN1CCN(CCO)CC1 [Ex 75, 1-(5-tert-butylisoxazol-3-yl)-3-(3-(7-(3-(4-(2-hydroxyethyl)piperazin-1-yl)propoxy)-6-methoxyquinazolin-4-ylthio)phenyl)urea] | 250 to 500 | 250 to 500 | < 250 | > 1000
COCCOc1cc2ncnc(Oc3cccc(NC(=O)Nc4cccc(C(C)(C)C)c4)c3)c2cc1OC [Ex 119, 1-(3-tert-butylphenyl)-3-(3-(6-methoxy-7-(2-methoxyethoxy)quinazolin-4-yloxy)phenyl)urea] | 250 to 500 | 250 to 500 | 250 to 500 | > 1000
COc1cc2ncnc(Oc3cccc(NC(=O)Nc4cc(C(C)(F)F)no4)c3)c2cc1OC [Ex 152, 1-(3-(1,1-difluoroethyl)isoxazol-5-yl)-3-(3-(6,7-dimethoxyquinazolin-4-yloxy)phenyl)urea] | 250 to 500 | 250 to 500 | 500 to 1000 | 500 to 1000
COc1cc2c(Oc3cccc(NC(=O)Nc4cc(C(C)(C)C)on4)c3)ncnc2cc1OCCCN1CC[C@H](O)C1 [Ex 33, (S)-1-(5-tert-butylisoxazol-3-yl)-3-(3-(7-(3-(3-hydroxypyrrolidin-1-yl)propoxy)-6-methoxyquinazolin-4-yloxy)phenyl)urea] | 250 to 500 | 250 to 500 | < 250 | < 250
COc1cc2ncnc(Oc3cccc(NC(=O)Nc4cc(C(C)(C)C)on4)c3)c2cc1OCCCN1CCN(C)CC1 [Ex 21, 1-(5-tert-butylisoxazol-3-yl)-3-(3-(7-methoxy-6-(3-(4-methylpiperazin-1-yl)propoxy)quinazolin-4-yloxy)phenyl)urea] | 250 to 500 | 250 to 500 | < 250 | 250 to 500
COCCOc1cc2ncnc(Oc3cccc(NC(=O)Nc4cc(C(C)(C)C)no4)c3)c2cc1OC [Ex 202, 1-(3-tert-butylisoxazol-5-yl)-3-(3-(6-methoxy-7-(2-methoxyethoxy)quinazolin-4-yloxy)phenyl)urea] | 250 to 500 | 250 to 500 | < 250 | > 1000
COc1cc2ncnc(Sc3cccc(NC(=O)Nc4cc(C(C)(C)C)on4)c3)c2cc1OCCN1CCN(C)CC1 [Ex 67, 1-(5-tert-butylisoxazol-3-yl)-3-(3-(7-methoxy-6-(2-(4-methylpiperazin-1-yl)ethoxy)quinazolin-4-ylthio)phenyl)urea] | 250 to 500 | 250 to 500 | < 250 | > 1000
COc1cc2ncnc(Sc3cccc(NC(=O)Nc4cc(C(C)(C)C)on4)c3)c2cc1OCCN1CCN(CCO)CC1 [Ex 68, 1-(5-tert-butylisoxazol-3-yl)-3-(3-(6-(2-(4-(2-hydroxyethyl)piperazin-1-yl)ethoxy)-7-methoxyquinazolin-4-ylthio)phenyl)urea] | 250 to 500 | 250 to 500 | < 250 | 500 to 1000
COc1cc2ncnc(Oc3cccc(NC(=O)Nc4cc(C(F)(F)F)ncn4)c3)c2cc1OC [Ex 146, 1-(3-(6,7-dimethoxyquinazolin-4-yloxy)phenyl)-3-(6-(trifluoromethyl)pyrimidin-4-yl)urea] | 250 to 500 | 250 to 500 | > 1000 | > 1000
COc1cc2c(Oc3cccc(NC(=O)Nc4cc(C(C)(C)C)on4)c3)ncnc2cc1OCCCN1CCC(CO)CC1 [Ex 29] | 250 to 500 | 250 to 500 | < 250 | < 250
COc1cc2c(Sc3cccc(NC(=O)Nc4cc(C(C)(C)C)on4)c3)ncnc2cc1OCCCN1CCN(C)CC1 [Ex 73, 1-(5-tert-butylisoxazol-3-yl)-3-(3-(6-methoxy-7-(3-(4-methylpiperazin-1-yl)propoxy)quinazolin-4-ylthio)phenyl)urea] | 250 to 500 | 250 to 500 | < 250 | 500 to 1000
COc1cc2ncnc(Oc3cccc(NC(=O)Nc4cc(C(C)(C)C)on4)c3)c2cc1OCCCN1CCCCC1 [Ex 23, 1-(5-tert-butylisoxazol-3-yl)-3-(3-(7-methoxy-6-(3-(piperidin-1-yl)propoxy)quinazolin-4-yloxy)phenyl)urea] | 500 to 1000 | 500 to 1000 | < 250 | 500 to 1000
COc1cc2ncnc(Sc3cccc(NC(=O)Nc4cc(C(C)(C)C)on4)c3)c2cc1OCCN1CCN(S(C)(=O)=O)CC1 [Ex 69, 1-(5-tert-butylisoxazol-3-yl)-3-(3-(7-methoxy-6-(2-(4-(methylsulfonyl)piperazin-1-yl)ethoxy)quinazolin-4-ylthio)phenyl)urea] | 250 to 500 | 250 to 500 | < 250 | 250 to 500
COc1cc2c(Sc3cccc(NC(=O)Nc4cc(C(C)(C)C)on4)c3)ncnc2cc1OCCN1CCN(S(C)(=O)=O)CC1 [Ex 81, 1-(5-tert-butylisoxazol-3-yl)-3-(3-(6-methoxy-7-(2-(4-(methylsulfonyl)piperazin-1-yl)ethoxy)quinazolin-4-ylthio)phenyl)urea] | 500 to 1000 | 500 to 1000 | < 250 | 250 to 500
COCCOc1cc2ncnc(Oc3cccc(NC(=O)Nc4cc(C(C)(C)C)on4)c3)c2cc1OCCOC [Ex 12, 1-{3-[6,7-bis(2-methoxyethoxy)quinazolin-4-yloxy]phenyl}-3-(5-tert-butylisoxazol-3-yl)urea hydrochloride] | 500 to 1000 | 250 to 500 | < 250 | 250 to 500
COc1cc2c(Oc3cccc(NC(=O)Nc4cc(C(C)(C)C)on4)c3)ncnc2cc1OCCN1CCS(=O)(=O)CC1 [Ex 39, 1-(5-tert-butyl-isoxazol-3-yl)-3-(3-{7-[2-(1,1-dioxo-116-thiomorpholin-4-yl)-ethoxy]-6-methoxy-quinazolin-4-yloxy}-phenyl)-urea] | 250 to 500 | 250 to 500 | < 250 | < 250
CC(C)(C)c1cc(NC(=O)Nc2cccc(Oc3ncnc4cc5c(cc34)OCCO5)c2)no1 [Ex 14, 1-(5-tert-butylisoxazol-3-yl)-3-[3-(7,8-dihydro-[1,4]dioxino[2,3-g]quinazolin-4-yloxy)phenyl]urea hydrochloride] | 500 to 1000 | 250 to 500 | 500 to 1000 | > 1000
